Key:
right Purkinje fiber = experiment: Effect on myocardial action potential duration (APD75) in isolated, perfused Purkinje fiber; type: cell-based, mongrel adult dog; settings: Canis lupus familiaris, 20 min, 20 minutes' incubation, field stimulus of 1 Hz, 37°C, read-out: T (%), percent prolongation of myocardial action potential duration (APD75); for activation at 1 µM: Dose 1 x 10^-6 M; for activation at 10 µM: Dose 10 x 10^-6 M; for activation at 100 µM: Dose 100 x 10^-6 M
Procedure: After a mongrel adult dog was anesthetized by the intravenous administration of 30 mg/kg of pentobarbital, the heart was excised therefrom. Then, the right Purkinje fiber was isolated in a nutrient fluid (i.e., Tyrode's solution). The isolated right Purkinje fiber was fixed in a constant-temperature bath (20 ml) at 37°C and perfused with Tyrode's solution. In this state, the myocardial action potential duration (APD75) was measured before and after the administration of each test compound. Then, the percent prolongation of myocardial action potential duration (T) after the administration of each test compound was calculated according to the following equation. T(%) =(B - A)/(A)x 100 [formula] where A: APD75 before administration B: APD75 after administration
APD75 was measured as follows: A field stimulus of 1 Hz was given to the right Purkinje fiber, and any change in action potential was detected by a glass microelectrode (10-20 MΩ) penetrated into a Purkinje fiber and monitored on an oscilloscope via an amplifier. The waveform on the oscilloscope was analyzed by means of a computer, and the duration beween the point of action potential generation adn the point of 75% repolarization was defined as APD75. The test compounds shown in Table 2 were separately added to the perfusing nutrient fluid, and after 20 minutes' incubation was recorded. This test was carried out according to the method of Sato et al. [S. Sato, K. Hashimoto; Arzneimittel Forschung, 34(1), 3a, 376-380(1984)].

[1] = Toxicity test (mortality rate 24 hours after administration); settings: mouse, in vivo, ip; 100 mg/kg (i.p.); twenty-four hours after administration; groups of three mice
Procedure: The test compounds were separately administered to mice (ddy strain, male). The administration of each compound was carried out intraperitoneally (i.p.) in a dose of 100 mg/kg. Twenty-four hours after the administration, the mortality rate of the mice (in groups of three) was examined.

[2] = Stability test in acid aqueous solution (Solution 1 of the Japanese Pharmacopoeia, pH 1.2), remaining compound by HPLC; type: physicochemical; settings: Solution 1 (pH 1.2)
Procedure: In order to confirm the stability of the compounds of the present invention in an acid aqueous solution, stability was tested on the fumarate of 6-[3-[N-[2-(4-methanesulfonylaminophenyl)ethyl]-N-propylamino]propyl]-1,3-dimethyl-2,4(1H,3H)pyrimidinedione (the compound obtained in Example 118; hereinafter referred to as compound A) which is a compound in accordance with the present invention, and 1,3-dimethyl-6-{2-[N-ethyl-3-phenylpropylamino]ethylamino}2,4(1H,3H)-pyrimidinedione (hereinafter referred to as compound B) which is a pyrimidinedione derivative having a substituted amino group at the 6-position of the pyrimidinedione ring as described in European Publication No. 454,498 A2 and was used for purposes of comparison.
Solution 1 (pH 1.2) described in the Japaense Pharmacopoeia was prepared by adding 7.0 ml of hydrochloric acid and water to 2.0 g of sodium chloride so as to give the final volume of 1,000 ml.
Compounds A and B were dissolved in Solution 1 at a concentration of 2 mg/ml and the resulting solutions were stirred at 37°C. Thus, changes with time in the percentages of the remaining compounds A and B were examined by HPLC.

ventricular muscle = experiment: Effect on ventricular muscle refractory period (ERP) under ventricular pacing in anesthetized dog; type: in vivo, mongrel adult dog; settings: ventricular pacing at 400 msec
Procedure: According to the method described below, the refractory period was measured before and after the intravenous administration of each test compound, and the percent prolongation of refractory period (ERP) was calculated according to the following equation. ERP prolongation (%) =(W - Y)/(Y)x 100 [formula] where W: Refractory period after administration Y: Refractory period before administration
After a mongrel adult dog was anesthetized by the intravenous (i.v.) administration of 30 mg/kg of pentobarbital, the chest was opened on the right side. Then, a set of silver-silver chloride electrodes spaced by 3 mm was sewn on the right ventricle, and […] electrical stimuli (a duration of 4 msec, and a current intensity equal to twice the threshold) were given at an interval of 400 msec. Thereafter, a small amount of alcohol was injected into a sinus artery in order to destroy the pacemaker activity, and the ventricular refractory period (ERP) was measured under ventricular pacing. Specifically, one train comprised a series of stimuli having an interval of 400 msec, and the interval between trains was usually 400 msec. During measurement of the refractory period, this interval was shortened by decrements of 10 msec, and the interval between trains at which the response to the first stimulus of the train disappeared was regarded as the refractory period. These electrical stimuli were given by programmed stimulation using a heart stimulation apparatus (Diamedical Co., Ltd.; DHM-226-3).

In the case of CCCN(CCCc1cc(=O)n(C)c(=O)n1C)CCOc1ccc(C(C)=O)cc1 [Example 47, 6-[3-[N-[2-(4-acetylphenoxy)ethyl]-N-propylamino]propyl]-1,3-dimethyl-2,4(1H,3H)pyrimidinedione], the activation at 1 µM (right Purkinje fiber) is reported as 13%, the activation at 10 µM (right Purkinje fiber) is reported as 53% and the activation at 100 µM (right Purkinje fiber) is reported as 107%. It also gave a mortality at 24 h [1] of 0%.

CCN(CCCc1ccc(NS(C)(=O)=O)cc1)CCCc1cc(=O)n(C)c(=O)n1C [Example 138, 6-[3-[N-ethyl-N-[3-(4-methanesulfonylaminophenyl)propyl]amino]propyl]-1,3-dimethyl-2,4(1H,3H)-pyrimidinedione] gave an activation at 1 µM (right Purkinje fiber) of 6%, an activation at 10 µM (right Purkinje fiber) of 22% and an activation at 100 µM (right Purkinje fiber) of 49%.

With CCN(CCOc1ccc(F)cc1C(C)=O)CCc1cc(=O)n(C)c(=O)n1C [Example 61, 6-[2-[N-[2-(2-acetyl-4-fluorophenoxy)ethyl]-N-ethylamino]ethyl]-1,3-dimethyl-2,4(1H,3H)pyrimidinedione] the activation at 1 µM (right Purkinje fiber) was 3%, the activation at 10 µM (right Purkinje fiber) was 18% and the activation at 100 µM (right Purkinje fiber) was 35%.

In the case of CCN(CCCc1cc(=O)n(C)c(=O)n1C)CCOc1cccc(F)c1 [Example 38, 6-[3-[N-ethyl-N-[2-(3-fluorophenoxy)ethyl]amino]propyl]-1,3-dimethyl-2,4(1H,3H)pyrimidinedione], the activation at 1 µM (right Purkinje fiber) is reported as 6%, the activation at 10 µM (right Purkinje fiber) is reported as 16% and the activation at 100 µM (right Purkinje fiber) is reported as 22%.

For CCN(CCCc1ccccc1)CCNc1cc(=O)n(C)c(=O)n1C [compound B, 1,3-dimethyl-6-{2-[N-ethyl-3-phenylpropylamino]ethylamino}2,4(1H,3H)-pyrimidinedione], the “Percentage of remaining compound” value ([2]; 0 hr, 2 mg/ml, stirred at 37°C, HPLC) was 100%, the remaining at 3 h ([2]; jp solution 1, 3 hr, 2 mg/ml, stirred at 37°C, HPLC, read-out: Percentage of remaining compound) was 96% and the degraded at 6 h ([2]; jp solution 1, 6 hours, 37°C, read-out: decrease after 6 hours' heating) was 7%. It also gave a remaining at 6 h ([2]; jp solution 1, 6 hr, 2 mg/ml, stirred at 37°C, HPLC, read-out: Percentage of remaining compound) of 93%.

In the case of CCCN(CCCc1cc(=O)n(C)c(=O)n1C)CCc1ccc([N+](=O)[O-])cc1 [Example 76, 1,3-dimethyl-6-[3-[N-[2-(4-nitrophenyl)ethyl]-N-propylamino]propyl]-2,4(1H,3H)pyrimidinedione], the activation at 1 µM (right Purkinje fiber) is reported as 52% and the activation at 10 µM (right Purkinje fiber) is reported as 114%.

For CCN(CCCc1cc(=O)n(C)c(=O)n1C)CCOc1ccc([N+](=O)[O-])cc1 [Example 28, 6-[3-[N-ethyl-N-[2-(4-nitrophenoxy)ethyl]amino]propyl]-1,3-dimethyl-2,4(1H,3H)pyrimidinedione], the activation at 1 µM (right Purkinje fiber) was 14%, the activation at 10 µM (right Purkinje fiber) was 35% and the activation at 100 µM (right Purkinje fiber) was 114%.

Molecule CCN(CCCc1cc(=O)n(C)c(=O)n1C)CCc1ccc([N+](=O)[O-])cc1 [Example 84, 6-[3-[N-ethyl-N-[2-(4-nitrophenyl)ethyl]amino]propyl]-1,3-dimethyl-2,4(1H,3H)pyrimidinedione] has an activation at 1 µM (right Purkinje fiber) of 23%, an activation at 10 µM (right Purkinje fiber) of 72% and an activation at 100 µM (right Purkinje fiber) of 96%.

With CCCN(CCCc1cc(=O)n(C)c(=O)n1C)CCOc1ccc(NS(C)(=O)=O)cc1 [Example 121, 6-[3-[N-n-propyl-N-[2-(4-methanesulfonylaminophenoxy)ethyl]amino]propyl]-1,3-dimethyl-2,4(1H,3H)pyrimidinedione] the activation at 1 µM (right Purkinje fiber) was 17%, the activation at 10 µM (right Purkinje fiber) was 68% and the activation at 100 µM (right Purkinje fiber) was 103%. The “ERP (%), percent prolongation of refractory period” value (shortened to “ERP (%), percent prolongation”) (ventricular muscle; Dose 0.1 mg/kg i.v.) was 6.2%, the “ERP (%), percent prolongation” value (ventricular muscle; Dose 0.3 mg/kg i.v.) was 20.0% and the “ERP (%), percent prolongation” value (ventricular muscle; Dose 1.0 mg/kg i.v.) was 33.3%. It also gave a mortality at 24 h [1] of 0%.

CC(C)N(CCCc1cc(=O)n(C)c(=O)n1C)CCOc1ccc(NS(C)(=O)=O)cc1 [Example 116, 6-[3-[N-[2-(4-methanesulfonylaminophenoxy)ethyl]-N-isopropylamino]propyl]-1,3-dimethyl-2,4(1H,3H)pyrimidinedione] gave an activation at 1 µM (right Purkinje fiber) of 9%, an activation at 10 µM (right Purkinje fiber) of 43% and an activation at 100 µM (right Purkinje fiber) of 77%. The “ERP (%), percent prolongation” value (ventricular muscle; Dose 0.1 mg/kg i.v.) was 6.3%, the “ERP (%), percent prolongation” value (ventricular muscle; Dose 0.3 mg/kg i.v.) was 12.5% and the “ERP (%), percent prolongation” value (ventricular muscle; Dose 1.0 mg/kg i.v.) was 25.0%. It also gave a mortality at 24 h [1] of 0%.

Work on CCN(CCCc1cc(=O)n(C)c(=O)n1C)CCOc1ccc(F)cc1 [Example 39, 6-[3-[N-ethyl-N-[2-(4-fluorophenoxy)ethyl]amino]propyl]-1,3-dimethyl-2,4(1H,3H)pyrimidinedione] yielded an activation at 1 µM (right Purkinje fiber) of 14%, an activation at 10 µM (right Purkinje fiber) of 53% and an activation at 100 µM (right Purkinje fiber) of 49%.

CCN(CCOc1ccc(NS(C)(=O)=O)cc1)CCc1cc(=O)n(C)c(=O)n1C [Example 123, 6-[2-[N-ethyl-N-[2-(4-methanesulfonylaminophenoxy)ethyl]amino]ethyl]-1,3-dimethyl-2,4(1H,3H)-pyrimidinedione] gave an activation at 1 µM (right Purkinje fiber) of 12%, an activation at 10 µM (right Purkinje fiber) of 41% and an activation at 100 µM (right Purkinje fiber) of 64%.

With CC(=O)c1cc(F)ccc1OCCN(C)CCCc1cc(=O)n(C)c(=O)n1C [Example 60, 6-[3-[N-[2-(2-acetyl-4-fluorophenoxy)ethyl]-N-methylamino]propyl]-1,3-dimethyl-2,4(1H,3H)pyrimidinedione] the activation at 1 µM (right Purkinje fiber) was 13%, the activation at 10 µM (right Purkinje fiber) was 34% and the activation at 100 µM (right Purkinje fiber) was 47%. It also gave a mortality at 24 h [1] of 0%.

With CC(C)N(CCCc1cc(=O)n(C)c(=O)n1C)CCOc1ccc(-n2ccnc2)cc1 [Example 53, 6-[3-[N-[2-(4-(1H-imidazol-1-yl)phenoxy)ethyl]-N-isopropylamino]propyl]-1,3-dimethyl-2,4(1H,3H)pyrimidinedione] the activation at 1 µM (right Purkinje fiber) was 8%, the activation at 10 µM (right Purkinje fiber) was 24% and the activation at 100 µM (right Purkinje fiber) was 49%. For the same molecule, the mortality at 24 h [1] was 0%.

With CCN(CCCOc1ccc(NS(C)(=O)=O)cc1)CCCc1cc(=O)n(C)c(=O)n1C [Example 122, 6-[3-[N-ethyl-N-[3-(4-methanesulfonylaminophenoxy)propyl]amino]propyl]-1,3-dimethyl-2,4(1H,3H)-pyrimidinedione] the activation at 1 µM (right Purkinje fiber) was 10%, the activation at 10 µM (right Purkinje fiber) was 14% and the activation at 100 µM (right Purkinje fiber) was 33%.

Molecule CCCN(CCOc1ccc(NS(C)(=O)=O)cc1)CCc1cc(=O)n(C)c(=O)n1C [Example 126, 6-[2-[N-n-propyl-N-[2-(4-methanesulfonylaminophenoxy)ethyl]amino]ethyl]-1,3-dimethyl-2,4(1H,3H)pyrimidinedione] has an activation at 1 µM (right Purkinje fiber) of 14%, an activation at 10 µM (right Purkinje fiber) of 46% and an activation at 100 µM (right Purkinje fiber) of 85%. The “ERP (%), percent prolongation” value (ventricular muscle; Dose 0.3 mg/kg i.v.) was 5.9% and the “ERP (%), percent prolongation” value (ventricular muscle; Dose 1.0 mg/kg i.v.) was 11.8%.

— patent EP0697407B1, “Pyrimidinedione derivatives and antiarrhythmic compositions containing same” (MITSUI TOATSU CHEMICALS, Inc., priority 1994, dated 1996)
